The values below come from PubChem BioAssay (NCI).

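Where inhibition never reached the appropriate level, the endpoint shown equals the highest concentration tested. Otherwise, values were interpolated linearly from a five-concentration, 48-hour dose response in 96-well plates. At the TGI there is no net growth.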

What all share (assay): inhibition of tumour cell growth, NCI panel, 48 h
Test [1] deals with DU-145 prostate.
Test [2] concerns EKVX NSCLC.
Test [3] has as its system HCC-2998 colon.
Test [4] relates to HS 578T breast.
Test [5] deals with HT29 colon.
In test [6] the test system is K-562 leukemia.
Test [7] relates to MCF7 breast.
Test [8] relates to MDA-MB-231 breast.
The test system of test [9] is MDA-N.
Test [10] has as its system NCI-H23 lung.
Test [11] has as its system NCI-H460 lung.
Test [12] deals with OVCAR-5 ovarian.
Test [13] concerns PC-3 prostate.
Test [14] relates to SF-268 CNS.
Test [15] relates to SF-539 CNS.
Test [16] concerns SK-OV-3 ovarian.
Test [17] deals with SN12C renal.
Test [18] concerns KM12 colon.
Test [19] relates to U251 CNS.

Take `COc1cc(S(=O)(=O)Nc2ccc(-c3csc(/N=C\c4cccs4)n3)cc2)ccc1Cl`: the TGI in test [1] is more than 100 µM; in test [2], more than 100 µM; in [3], 70.1 µM; in test [4] it was more than 100 µM; in test [5], more than 100 µM; in [6], more than 100 µM. In addition, the TGI is 48.5 µM in test [7]; more than 100 µM in test [8]; more than 100 µM in test [9]; more than 100 µM in test [10]; more than 100 µM in test [11]; more than 100 µM in test [12]. Further, the TGI in [13], in [14], in test [15], in test [16] and in test [17] was more than 100 µM in each case.
Regarding `CCOC(=O)[C@@H]1C[C@@H]1c1ccc(O)c(O)c1`, the TGI is more than 100 µM in test [1]; more than 100 µM in test [2]; 67.7 µM in [3]; more than 100 µM in test [4]; more than 100 µM in test [5]; 32.9 µM in [6]. Also, the TGI in [18] was 82.2 µM; in [7], 35.2 µM; in test [8] it was 27.8 µM; in test [9], 35.1 µM; in [10] it was more than 100 µM; in [11] it was more than 100 µM. Further, the TGI in [12] was more than 100 µM; in test [13], more than 100 µM; in test [14], more than 100 µM; in test [15], 49.3 µM; in test [16], more than 100 µM; in [17], more than 100 µM. In test [19], this molecule showed a TGI of more than 100 µM.
Regarding `Nc1ncnc2c1N=C(c1ccccc1)CC(c1ccccc1)N2` (centres undefined), the TGI in [1], in test [2], in [3], in [4], in [5] and in test [6] was more than 100 µM each time. Besides, the TGI in test [18], in test [7], in [8], in [9], in [10] and in test [12] was more than 100 µM each time. Moreover, the TGI in test [13], in test [14], in [15], in test [16], in test [17] and in [19] was more than 100 µM throughout.
Regarding `OC1CSCCSCCCSCCSC1`, the TGI in [1], in [2], in test [3], in test [4], in test [5] and in test [6] was more than 100 µM each time. In addition, the TGI in [7], in test [8], in test [9], in test [10], in test [11] and in test [12] was more than 100 µM throughout. Also, the TGI in [13], in test [14], in test [15], in [16], in [17] and in test [19] was more than 100 µM throughout.
On to `O=C1NC2=NN=C(c3ccc(Br)cc3)CN2NC12c1ccccc1-c1ccccc12`, for which the TGI in test [1], in test [2], in test [3], in test [4], in test [5] and in test [6] was more than 100 µM throughout. Besides, the TGI in test [7], in test [8], in [9], in [10], in test [11] and in [12] was more than 100 µM in each case. For the same molecule, the TGI in test [13], in test [14], in [15], in test [16], in test [17] and in test [19] was more than 100 µM each time.
Regarding `COCCOCCOCCC(=O)NC1CC2CCC1(C)C2(C)C` (centres undefined), the TGI in test [1], in test [2], in test [3], in test [4], in test [5] and in test [6] was more than 100 µM in each case. Besides, the TGI in [18], in test [7], in test [8], in test [9], in test [10] and in test [11] was more than 100 µM each time. Besides, the TGI in test [12], in [13], in [14], in [15], in [16] and in test [17] was more than 100 µM throughout. In test [19], this molecule returned a TGI of more than 100 µM.
For the molecule `N#C[C@H](C(=O)c1ccccc1F)c1nc2ccccc2[nH]1`, the TGI in [1], in test [2], in [3], in test [4], in test [5] and in test [6] was more than 100 µM throughout. The TGI in test [18], in [7], in test [8], in test [9], in [10] and in test [11] was more than 100 µM each time. Also, the TGI in [12], in test [13], in test [14], in test [15], in test [16] and in test [17] was more than 100 µM each time. This molecule showed a TGI in test [19] of more than 100 µM.
Turning to `C=C1C(=O)O[C@@H]2[C@H]1C[C@H](I)[C@@]1(C)CC[C@H](O1)[C@](C)(I)CCCC(C)[C@@H]2O` (some centres undefined), the TGI in [1] was 13.6 µM; in test [2], 22.9 µM; in test [3], 25.2 µM; in test [4], 40.1 µM; in test [5] it was 4.61 µM; in test [6] it was more than 42.1 µM. The TGI turned out to be 23.7 µM in [18]; 7.29 µM in test [7]; 16.3 µM in test [8]; 9.57 µM in test [9]; 20.5 µM in test [10]; 28.6 µM in [11]. Further, the TGI in test [12] is 26.5 µM; in test [13], 24.6 µM; in test [14], 27.2 µM; in [15] it was 4.25 µM; in test [16], 30.7 µM; in [17], 17.7 µM. In addition, the TGI in test [19] turned out to be 20 µM.
Regarding `COC(=O)C1(Cc2ccccc2)Cc2c(C)ccc(C)c2C1=O` (centres undefined), the TGI in test [1] is more than 100 µM; in [2], more than 100 µM; in [3], 97.7 µM; in test [4], 62 µM; in [5], 69.8 µM; in test [6] it was more than 100 µM. Moreover, the TGI is 42.8 µM in test [18]; 81.1 µM in test [7]; 38.4 µM in test [8]; more than 100 µM in test [9]; more than 100 µM in test [10]; more than 100 µM in [11]. The TGI in test [12] is more than 100 µM; in test [13], 78.2 µM; in test [14] it was more than 100 µM; in test [15], more than 100 µM; in [16], more than 100 µM; in [17] it was more than 100 µM. Moreover, the TGI in [19] was more than 100 µM.
On to `O=C1c2ccccc2/C=C\C(c2ccccc2)=N/N1c1ccccc1Cl`, for which the TGI in [1] is more than 100 µM; in test [2], more than 100 µM; in test [3], more than 100 µM; in test [4] it was more than 100 µM; in test [5], 37 µM; in test [6] it was more than 100 µM. For the same molecule, the TGI in [18] is 64.4 µM; in test [7] it was 63.9 µM; in test [8], 49.2 µM; in test [9], 14.7 µM; in [10] it was 93.6 µM; in test [11], more than 100 µM. Also, the TGI was more than 100 µM in test [12]; 28.6 µM in [13]; more than 100 µM in test [14]; more than 100 µM in test [15]; more than 100 µM in [17]; 63.5 µM in test [19].
For the molecule `O=S(=O)(/N=C(\NO)Nc1ccc(Cl)cc1)c1cc(S(=O)(=O)c2ccccc2)cs1`, the TGI in test [1] was 33 µM; in test [2] it was 35.4 µM; in test [3] it was 27.6 µM; in test [4], 54.8 µM; in [5], 47 µM; in [6] it was 31.6 µM. Besides, the TGI came to 64.7 µM in test [18]; 35.9 µM in test [7]; 56.1 µM in test [8]; 34.8 µM in test [9]; 41.9 µM in test [10]; 40.7 µM in test [11]. The TGI in test [12] is 42.5 µM; in [13] it was 33.9 µM; in test [14], 37 µM; in [15], 32.4 µM; in [17], 33.6 µM; in [19] it was 30.6 µM.
Regarding `COC(=O)[C@]1(C)CCCC2(C)C3=C(CCC21)CC1(CC3)SCCS1` (some centres undefined), the TGI in test [1], in test [2], in [3], in test [4], in test [5] and in test [6] was more than 10 µM each time. The TGI in [18], in test [7], in test [8], in test [9], in test [10] and in test [13] was more than 10 µM each time. The TGI in test [14], in [15], in test [16], in test [17] and in test [19] was more than 10 µM throughout.
